We go through three substances from patent US20180289692A1, “TLR MODULATORS AND METHODS OF USE” (CELGENE CORPORATION, priority 2015, published 2018).

Oligonucleotides are written 5' to 3', each unit as a sugar letter and its base; * is a phosphorothioate linkage, no mark a phosphodiester; rarer units and linkages stand in square brackets, end groups in braces. Plain capitals give the bases only. d = 2'-deoxy (DNA); m = 2'-O-methyl

Format in all cases: cell-based
For one data set, the system named is human PBMCs. In words: Cytokine production by human PBMCs treated with ODNs, MagPix Multi-Plex. To be noted: human PBMC, 24 hrs. As to the method:
PBMC from 3 donors were isolated from Buffy Coat (Blood Center of NY). The cells were washed with PBS and re-suspended in RPMI-1640 Media with 5% Human AB Serum, 1% Pen/Strep and 2 mM L-glutamine. The cells were then plated in 96-well plates at 250,000 cells/well. […] After 24 hrs, the supernatant was harvested and tested for cytokine production using MagPix Multi-Plex Technology. The following cytokines were tested: IL-6, IL-10, IL-12p40, IFN-α, IFN-γ, IP-10, IL-1β and TNF-α.

Data set [1] concerns canonical NF-κB promoter reporter. In words: Mouse Raw Blue Reporter Cells, SEAP reporter driven by canonical NF-κB promoter (FIG. 11). The conditions noted are these: mouse macrophages, 24 hrs; for activation of canonical NF-κB reporter: SEAP, COMPOUND (I) up to 10 μM. As to the method:
Mouse Raw Blue Reporter Cells (Invivogen), containing a secreted embryonic alkaline phosphatase (SEAP) reporter gene driven by canonical NF-κB promoter, were plated in 96-well plates at 50,000 cells/well in DMEM Media supplemented with 10% FBS, 2 mM L-glutamine, 1% Pen/Strep, […] Normacin. […] The supernatant was harvested and tested for SEAP production by measuring OD at 630 nm.

The next data set has as its system mouse macrophages. In words: TNFα and IL-10 production in mouse macrophages (Raw Blue cells), MagPix. The conditions noted are these: 24 hrs. Here is the method: Mouse Raw Blue Reporter Cells (Invivogen) were plated in 96-well plates at 50,000 cells/well in DMEM Media supplemented with 10% FBS, 2 mM L-glutamine, 1% Pen/Strep, […] Normacin. […] The supernatant was harvested and tested for TNFα and IL-10 production using MagPix Multi-Plex technology.

In the data set on human PBMCs (high-dose ODN 10 μM), “ODN150C: 5′-G*G*A*ACAGTTAGTCCATa*G*G*C-3′, PO except * = PS; control lacking CG-dinucleotide sequences (DNA GGAACAGTTAGTCCATGGC; listed as DNA, chemistry not fully specified)” returned an IFN-γ of 0.1 pg/mL, an IL-1β of 0.3 pg/mL, an IL-6 of 1.4 fold change and an IL-10 of 1 fold change. In the data set on human PBMCs (high-dose ODN 10 μM), this substance had an IL-12p40 of 0 pg/mL, an IP10 of 1.5 fold change and a TNF-α of 1.4 fold change. In the data set on human PBMCs (low-dose ODN 0.1 μM), the IFN-γ turned out to be 0.1 pg/mL, the IL-1β was determined as 0.2 pg/mL, the IL-6 came to 1.2 fold change and the IL-10 came out at 1 fold change. In the data set with human PBMCs (low-dose ODN 0.1 μM), this substance gave an IL-12p40 of 0 pg/mL, an IP10 of 1 fold change and a TNF-α of 1.2 fold change. Also, the “activation of canonical NF-κB reporter” value in data set [1] is recorded as “did not activate”.

Regarding ODN1826, in the data set on mouse macrophages (FIG. 12, COMPOUND (I) up to 10 μM), the TNFα protein expression entry is “induce”. Moreover, the IL-10 protein expression result in the data set on mouse macrophages (FIG. 13, COMPOUND (I) up to 10 μM) is listed as “induce”. In data set [1], the “concentration from which the NF-κB reporter is activated” value is not above 0.01 µM and the “activation of canonical NF-κB reporter” value was “potent activator”.

In the data set with human PBMCs (high-dose ODN 10 μM), “ODN7040C: 5′-CTGCCAAGTTCACCTGCA*C*C*-3′, PO; * = 2′OMe; control lacking CG-dinucleotide sequences (DNA dCdTdGdCdCdAdAdGdTdTdCdAdCdCdTdGdCmAmCmC)” gave an IFN-γ of 0.2 pg/mL, an IL-1β of 0.5 pg/mL, an IL-6 of 2.1 fold change and an IL-10 of 1 fold change. For the same substance, in the data set with human PBMCs (high-dose ODN 10 μM), the IL-12p40 was 0.1 pg/mL, the IP10 is reported as 1.4 fold change and the TNF-α came out at 1.4 fold change. In the data set with human PBMCs (low-dose ODN 0.1 μM), this substance gave an IFN-γ of 0.2 pg/mL, an IL-1β of 0.6 pg/mL, an IL-6 of 1.2 fold change and an IL-10 of 1 fold change. Besides, in the data set on human PBMCs (low-dose ODN 0.1 μM), the IL-12p40 came to 0.1 pg/mL, the IP10 amounted to 1.1 fold change and the TNF-α worked out at 1.1 fold change. In data set [1], the “activation of canonical NF-κB reporter” value is “did not activate”.
